From US20250241923A1, “A DUAL SELECTIVE PI3K DELTA AND GAMMA INHIBITORS AND/OR A SALT-INDUCIBLE KINASE 3 INHIBITOR FOR TREATING SOLID TUMORS” (Incozen Therapeutics Pvt. Ltd, priority 2022, published 2025)
Entries after “also recorded” stand apart in the source; their conditions may differ.

Experiments:
[1] = Pharmacokinetics, oral bioavailability in rats; format: in vivo; settings: rat, plasma
Procedure: (§1) Pharmacokinetic studies following single-dose and repeat dose administration were performed in mice, rats, dogs, humans and monkeys. Tenalisib plasma concentrations were determined by a validated LC-MS/MS method. The pharmacokinetic profile of tenalisib was evaluated following both oral and intravenous administration. […] In an in vitro study using liver microsomes, the metabolic stability followed a rank order of rat>human>dog>monkey>mouse.

[2] = Pharmacokinetics, oral bioavailability in mice; format: in vivo; settings: mouse, plasma
Procedure: as §1

[3] = Pharmacokinetics, oral bioavailability in dogs; format: in vivo; settings: dog, plasma
Procedure: as §1

[4] = Pharmacokinetic studies, absorption and clearance across the tested species; format: in vivo, mice, rats, dogs, humans and monkeys
Procedure: as §1

plasma proteins [5] = experiment: In vitro protein binding, rat plasma; format: in vitro ADME
Procedure: (§2) In vitro protein binding studies were performed using rat, dog, monkey and human plasma. Binding of tenalisib to plasma proteins was >96% across all species.

plasma proteins [6] = experiment: In vitro protein binding, dog plasma; format: in vitro ADME
Procedure: as §2

plasma proteins [7] = experiment: In vitro protein binding, monkey plasma; format: in vitro ADME
Procedure: as §2

plasma proteins [8] = experiment: In vitro protein binding, human plasma; format: in vitro ADME
Procedure: as §2

[9] = In vitro plasma stability, rat plasma; format: in vitro ADME; settings: LC-MS/MS
Procedure: (§3) In vitro plasma stability studies were performed using rat, dog, monkey and human plasma. The concentration of tenalisib was measured by LC-MS/MS.

[10] = In vitro plasma stability, dog plasma; format: in vitro ADME; settings: LC-MS/MS
Procedure: as §3

[11] = In vitro plasma stability, monkey plasma; format: in vitro ADME; settings: LC-MS/MS
Procedure: as §3

[12] = In vitro plasma stability, human plasma; format: in vitro ADME; settings: LC-MS/MS
Procedure: as §3

[13] = Tissue distribution upon single oral administration; format: in vivo; settings: single oral administration 10 mg/kg bodyweight; male wistar rats
Procedure: Tissue distribution upon single oral administration (10 mg/kg bodyweight) of tenalisib was studied in male wistar rats. The rank order of Cmax and AUC in Wistar rats was liver>kidney>heart>plasma>thymus>spleen>serum>lung>blood>brain.

[14] = Metabolic stability in liver microsomes, mouse; format: in vitro ADME
Description: (§4) In in vitro studies using liver microsomes, the metabolic stability of tenalisib followed the rank order of rat>human>dog>monkey>mouse (Table 3).

[15] = Metabolic stability in liver microsomes, rat; format: in vitro ADME
Description: as §4

[16] = Metabolic stability in liver microsomes, dog; format: in vitro ADME
Description: as §4

[17] = Metabolic stability in liver microsomes, monkey; format: in vitro ADME
Description: as §4

[18] = Metabolic stability in liver microsomes, human; format: in vitro ADME
Description: as §4

[19] = Metabolic stability in liver microsomes, rank order across species; format: in vitro ADME, rat, human, dog, monkey, mouse
Procedure: as §1, §4

PI3Kδ [20] = target: T1, PI3Kδ (Homo sapiens, UniProt O00329); experiment: PI3K isoform enzyme assay (HTRF), PI3Kδ; format: biochemical
PI3Kγ [21] = target: T2, PI3Kγ (Homo sapiens, UniProt P48736); experiment: PI3K isoform enzyme assay (HTRF), PI3Kγ; format: biochemical; settings: 100 μM ATP
PI3Kβ [22] = target: PI3Kβ (Homo sapiens, UniProt P42338); experiment: PI3K isoform enzyme assay (HTRF), PI3Kβ; format: biochemical; settings: 100 μM ATP
PI3Kγ [23] = target: T3, PI3Kγ (Mus musculus, UniProt Q9JHG7); experiment: PI3K isoform cell-based assay: c5a induced pAKT in RAW macrophages
T3 construct: endogenous in cells; host or cells: RAW macrophages (c5a induced pAKT)

PI3Kβ [24] = target: T4, PI3Kβ (Mus musculus, UniProt Q8BTI9); experiment: PI3K isoform cell-based assay: PI3K β-mediated phosphorylation of AKT in 3T3 fibroblasts; settings: pAKT by PDGF or lysophosphatidic acid in 3T3 fibroblasts
T4 construct: endogenous in cells; host or cells: 3T3 fibroblasts (pAKT)

PI3Kα = target: T5, PI3Kα (Mus musculus, UniProt P42337); experiment: PI3K isoform cell-based assay: PI3K α-mediated phosphorylation of AKT in 3T3 fibroblasts; settings: pAKT by PDGF or lysophosphatidic acid in 3T3 fibroblasts
T5 construct: endogenous in cells; host or cells: 3T3 fibroblasts (pAKT)

[25] = system: MC38 syngeneic murine colon carcinoma; experiment: MC38 syngeneic murine colon carcinoma C57BL/6 model; format: in vivo; settings: day 22; daily tenalisib; C57BL/6 female mice
Procedure: Daily tenalisib alone and in combination with anti-PD-1 (clone: RMP1-14) was evaluated for tumor growth inhibition (TGI) in the MC38 syngeneic murine colon carcinoma model in immunocompetent C57BL/6 female mice.

[26] = system: locally advanced or metastatic breast cancer; experiment: Phase II randomized open label study in breast cancer patients; format: in vivo, human
Procedure: This is a Phase II, randomized, open label study, designed to evaluate the preliminary efficacy and safety of tenalisib (Compound A) at two dose levels (800 mg BID and 1200 mg BID) in 40 patients with locally advanced or metastatic breast cancer. 20 patients will be enrolled in each of Group 1 (tenalisib 800 mg BID) and Group 2 (tenalisib 1200 mg BID). Both groups will be run in parallel.
• 1. Provision of full informed consent prior to any study-specific procedures. • 2. Patients must be ≥18 years of age, at the time of signing informed consent. • 3. Female patients who have histologically and/or cytologically confirmed locally advanced or metastatic breast cancer that has progressed following at least one line of therapy. • 4. Patients with at least one measurable lesion per RECIST version 1.1 at baseline that can be accurately assessed by CT scan or MRI and is suitable for repeated assessment at follow up-visits. • 5. ECOG performance status 0 to 2. • 6. Life expectancy of at least 3 months. • 7. […] Female patient of childbearing potential should be willing to use a medically acceptable method of contraception as defined in Appendix B while participating in the study and for 30 days after the last dose of study drug AND must have a negative serum pregnancy test within 3 days prior to Cycle 1 Day 1 (C1D1). • 9. Ability to swallow and retain oral medication. • 10. Willingness and capability to comply with the study requirements.

PI3Kγ [27] = target: T2, PI3Kγ; experiment: fMLP induced CD63 expression in human whole blood; format: cell-based; design: endogenous in cells; host or cells: human whole blood (fMLP induced CD63); settings: whole blood from healthy human subjects; flow cytometry; read-out: EC50 of fMLP (PI3Kγ) mediated CD63 expression
PI3Kδ [28] = target: T1, PI3Kδ; experiment: anti-FcεR1 induced CD63 expression in human whole blood; format: cell-based; design: endogenous in cells; host or cells: human whole blood (anti-FcεR1 induced CD63); settings: whole blood from healthy human subjects; flow cytometry; read-out: EC50 of anti-FcεR1 (PI3Kδ) mediated CD63 expression
PI3Kδ [29] = target: T1, PI3Kδ; experiment: PI3K isoform cell-based assay: anti-IgM induced human B-cell proliferation; design: endogenous in cells; host or cells: human B cells (anti-IgM proliferation); human whole blood (anti-FcεR1 induced CD63)
SIK3 = SIK3 (Homo sapiens, UniProt Q9Y2K2); experiment: SIK3 inhibition assay (enzymatic radiometric); format: biochemical; settings: 10 μM ATP
[30] = system: SK-OV-3 ovarian cancer cell line; experiment: Anti-proliferative effect of taxol and Compound (M) (Example 10), SK-OV-3; format: cell-based; settings: Compound (M) 3 μM added to taxol (6 nM, FIG. 7)
[31] = system: MCF-7 breast cancer cell lines; experiment: cells; settings: Homo sapiens, MCF7, 72 h, read-out: growth inhibition

T1 sequence (O00329 whole entry, canonical isoform): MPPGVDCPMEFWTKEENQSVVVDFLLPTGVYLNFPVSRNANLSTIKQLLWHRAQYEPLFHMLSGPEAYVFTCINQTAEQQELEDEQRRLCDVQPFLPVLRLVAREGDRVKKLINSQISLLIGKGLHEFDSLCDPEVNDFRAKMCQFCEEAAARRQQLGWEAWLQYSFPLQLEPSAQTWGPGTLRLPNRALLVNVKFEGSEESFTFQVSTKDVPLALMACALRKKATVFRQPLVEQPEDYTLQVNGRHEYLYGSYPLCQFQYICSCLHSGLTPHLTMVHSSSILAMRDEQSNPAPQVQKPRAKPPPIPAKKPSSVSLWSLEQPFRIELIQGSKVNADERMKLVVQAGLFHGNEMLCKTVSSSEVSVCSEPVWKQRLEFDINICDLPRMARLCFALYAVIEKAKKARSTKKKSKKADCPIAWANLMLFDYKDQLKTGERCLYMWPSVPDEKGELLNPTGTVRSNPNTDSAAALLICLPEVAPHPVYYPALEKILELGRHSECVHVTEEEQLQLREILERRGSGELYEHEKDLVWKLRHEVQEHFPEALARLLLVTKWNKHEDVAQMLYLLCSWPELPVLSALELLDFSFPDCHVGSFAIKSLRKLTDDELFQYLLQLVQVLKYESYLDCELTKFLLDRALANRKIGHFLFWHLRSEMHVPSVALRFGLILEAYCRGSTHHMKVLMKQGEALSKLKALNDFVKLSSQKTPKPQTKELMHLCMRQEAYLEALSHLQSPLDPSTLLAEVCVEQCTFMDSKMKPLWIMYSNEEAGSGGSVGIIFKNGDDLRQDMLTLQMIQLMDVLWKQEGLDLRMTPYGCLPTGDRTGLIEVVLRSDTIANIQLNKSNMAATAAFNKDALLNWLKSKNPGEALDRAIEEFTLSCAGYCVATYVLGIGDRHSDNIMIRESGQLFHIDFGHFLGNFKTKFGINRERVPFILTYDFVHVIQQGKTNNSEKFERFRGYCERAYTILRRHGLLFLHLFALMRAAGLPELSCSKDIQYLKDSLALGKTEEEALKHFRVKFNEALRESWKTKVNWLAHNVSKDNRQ
T1 sequence (P27986 whole entry partner, canonical isoform): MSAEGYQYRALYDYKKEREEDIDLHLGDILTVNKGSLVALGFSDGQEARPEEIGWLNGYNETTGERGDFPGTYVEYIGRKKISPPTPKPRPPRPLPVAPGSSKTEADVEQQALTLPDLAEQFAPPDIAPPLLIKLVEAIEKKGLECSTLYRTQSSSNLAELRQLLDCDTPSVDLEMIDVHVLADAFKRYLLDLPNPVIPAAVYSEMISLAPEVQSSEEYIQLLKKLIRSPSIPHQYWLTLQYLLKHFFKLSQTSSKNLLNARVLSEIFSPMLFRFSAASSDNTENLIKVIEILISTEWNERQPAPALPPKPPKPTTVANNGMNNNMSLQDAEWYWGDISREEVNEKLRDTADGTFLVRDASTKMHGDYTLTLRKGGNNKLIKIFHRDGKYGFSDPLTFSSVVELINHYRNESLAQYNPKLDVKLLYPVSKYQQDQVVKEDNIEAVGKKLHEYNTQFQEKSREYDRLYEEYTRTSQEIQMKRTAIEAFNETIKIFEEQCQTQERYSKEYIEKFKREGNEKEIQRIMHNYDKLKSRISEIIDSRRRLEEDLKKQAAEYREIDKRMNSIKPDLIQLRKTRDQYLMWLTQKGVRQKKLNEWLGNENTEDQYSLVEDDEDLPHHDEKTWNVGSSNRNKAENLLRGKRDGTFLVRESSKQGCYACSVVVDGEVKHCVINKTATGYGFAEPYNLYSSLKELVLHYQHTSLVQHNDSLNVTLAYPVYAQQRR
T2 sequence (P48736 whole entry, canonical isoform): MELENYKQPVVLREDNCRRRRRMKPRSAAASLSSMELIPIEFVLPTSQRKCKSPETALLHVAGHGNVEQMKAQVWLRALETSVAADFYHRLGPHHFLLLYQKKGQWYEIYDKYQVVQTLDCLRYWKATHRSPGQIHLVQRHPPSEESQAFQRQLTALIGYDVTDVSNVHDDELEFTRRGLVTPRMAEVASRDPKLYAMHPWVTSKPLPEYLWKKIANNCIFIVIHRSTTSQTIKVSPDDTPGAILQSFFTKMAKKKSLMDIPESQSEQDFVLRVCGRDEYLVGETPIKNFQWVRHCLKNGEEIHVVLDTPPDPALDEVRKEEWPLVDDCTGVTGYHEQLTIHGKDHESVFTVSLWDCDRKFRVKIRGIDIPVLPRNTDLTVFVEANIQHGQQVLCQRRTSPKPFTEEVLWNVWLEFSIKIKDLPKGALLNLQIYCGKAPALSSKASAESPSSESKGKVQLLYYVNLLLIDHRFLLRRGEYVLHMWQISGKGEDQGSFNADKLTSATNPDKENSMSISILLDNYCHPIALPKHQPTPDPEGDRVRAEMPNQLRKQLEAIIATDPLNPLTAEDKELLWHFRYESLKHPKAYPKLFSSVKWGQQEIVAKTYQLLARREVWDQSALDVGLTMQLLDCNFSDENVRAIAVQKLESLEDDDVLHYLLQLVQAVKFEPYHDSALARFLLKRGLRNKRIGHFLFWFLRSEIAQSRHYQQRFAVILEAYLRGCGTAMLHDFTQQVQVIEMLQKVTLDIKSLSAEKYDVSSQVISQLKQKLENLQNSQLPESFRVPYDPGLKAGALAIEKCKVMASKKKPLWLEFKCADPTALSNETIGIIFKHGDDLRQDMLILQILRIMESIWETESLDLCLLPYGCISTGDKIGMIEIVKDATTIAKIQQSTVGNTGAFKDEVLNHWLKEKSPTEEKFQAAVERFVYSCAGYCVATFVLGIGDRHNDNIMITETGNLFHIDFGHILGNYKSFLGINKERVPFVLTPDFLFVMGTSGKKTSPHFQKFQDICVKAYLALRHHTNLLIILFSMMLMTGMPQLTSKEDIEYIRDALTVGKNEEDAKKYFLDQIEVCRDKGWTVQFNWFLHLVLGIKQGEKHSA
Chain of SIK3 (Q9Y2K2 whole entry): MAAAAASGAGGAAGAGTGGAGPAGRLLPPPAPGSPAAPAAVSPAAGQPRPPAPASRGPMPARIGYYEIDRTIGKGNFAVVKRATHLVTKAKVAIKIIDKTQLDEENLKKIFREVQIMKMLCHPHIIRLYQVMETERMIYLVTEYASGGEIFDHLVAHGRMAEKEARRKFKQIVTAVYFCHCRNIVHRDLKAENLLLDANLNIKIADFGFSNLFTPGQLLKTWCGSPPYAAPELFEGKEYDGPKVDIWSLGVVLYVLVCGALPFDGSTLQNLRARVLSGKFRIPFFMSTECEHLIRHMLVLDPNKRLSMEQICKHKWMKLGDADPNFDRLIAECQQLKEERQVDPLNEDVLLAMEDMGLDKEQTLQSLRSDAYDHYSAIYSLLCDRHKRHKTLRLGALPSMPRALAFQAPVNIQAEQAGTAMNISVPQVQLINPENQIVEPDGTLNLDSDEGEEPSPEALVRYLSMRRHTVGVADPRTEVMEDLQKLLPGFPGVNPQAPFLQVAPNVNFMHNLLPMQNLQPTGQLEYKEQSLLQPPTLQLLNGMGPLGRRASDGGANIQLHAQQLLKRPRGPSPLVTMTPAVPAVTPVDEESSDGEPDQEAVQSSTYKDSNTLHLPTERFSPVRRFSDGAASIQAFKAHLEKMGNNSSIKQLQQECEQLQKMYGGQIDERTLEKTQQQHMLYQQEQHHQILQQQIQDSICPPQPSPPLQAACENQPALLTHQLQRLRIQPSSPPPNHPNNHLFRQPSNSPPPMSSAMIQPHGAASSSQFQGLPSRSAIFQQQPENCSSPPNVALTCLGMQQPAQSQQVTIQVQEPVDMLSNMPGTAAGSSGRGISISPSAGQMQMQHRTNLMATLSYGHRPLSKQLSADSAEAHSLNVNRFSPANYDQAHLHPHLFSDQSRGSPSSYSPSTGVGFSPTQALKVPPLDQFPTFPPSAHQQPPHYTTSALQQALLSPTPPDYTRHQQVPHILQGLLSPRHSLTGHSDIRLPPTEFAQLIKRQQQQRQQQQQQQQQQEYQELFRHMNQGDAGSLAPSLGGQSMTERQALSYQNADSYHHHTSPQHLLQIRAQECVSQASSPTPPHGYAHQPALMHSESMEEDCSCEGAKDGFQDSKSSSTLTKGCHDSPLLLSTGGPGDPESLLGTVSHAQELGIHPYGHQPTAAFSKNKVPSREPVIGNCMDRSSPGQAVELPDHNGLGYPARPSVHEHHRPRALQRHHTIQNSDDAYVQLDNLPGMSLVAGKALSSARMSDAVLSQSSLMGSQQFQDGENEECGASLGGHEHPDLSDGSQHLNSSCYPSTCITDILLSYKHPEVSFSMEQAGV

SMILES: CC[C@H](Nc1ncnc2[nH]cnc12)c1oc2ccccc2c(=O)c1-c1cccc(F)c1 [Compound A, (S)-2-(1-(9H-purin-6-ylamino)propyl)-3-(3-fluorophenyl)-4H-chromen-4-one]
- bioavailability [1]: > 72.4%
- bioavailability [2]: 21.6%
- bioavailability [3]: > 100%
- Absorption [4]: rapid
- clearance [4]: moderate
- Binding to plasma proteins (plasma proteins [5]): > 96%
- Binding to plasma proteins (plasma proteins [6]): > 96%
- Binding to plasma proteins (plasma proteins [7]): > 96%
- Binding to plasma proteins (plasma proteins [8]): > 96%
- plasma stability [9]: stable
- plasma stability [10]: stable
- plasma stability [11]: stable
- plasma stability [12]: stable
- rank order of Cmax and AUC in tissues [13]: liver>kidney>heart>plasma>thymus>spleen>serum>lung>blood>brain
- % Metabolic Stability [14]: 26.0%
- % Metabolic Stability [15]: 79.3%
- % Metabolic Stability [16]: 52.2%
- % Metabolic Stability [17]: 29.6%
- % Metabolic Stability [18]: 73.9%
- metabolic stability rank order [19]: rat>human>dog>monkey>mouse
- IC50 (PI3Kδ [20]; HTRF, 100 μM ATP): 24.5 nM
- selectivity over the α and β isoforms (enzyme assay) (PI3Kδ [20]; PI3K δ/γ versus PI3K α and β, listed as compound of formula (A)): several fold selectivity; also recorded: selective
- IC50 (PI3Kγ [21]): 33.2 nM
- IC50 (PI3Kβ [22]): 4020 nM
- EC50 (PI3Kγ [23]): 22.3 nM
- EC50 (PI3Kβ [24]): 2070 nM
- EC50 (PI3Kα): > 10000 nM
- TGI (Tumour Growth Inhibition) compared to control [25]: 29%
- Clinical Benefit Rate, % (CBR = PR + CR + SD ≥24 weeks) ([26]; 800 mg BID (N = 20)): (55) %
- Clinical Benefit Rate, n (CBR = PR + CR + SD ≥24 weeks) ([26]; 800 mg BID (N = 20)): 11
- Disease Control rate (DCR), % ([26]; 800 mg BID (N = 20)): (65) %
- Duration of Clinical Benefit, median ([26]; 800 mg BID (N = 20)): 9.36
- Duration of Response (DOR) in ORR patients, median ([26]; 800 mg BID (N = 20)): 7.53
- Duration of Treatment (DOT), median ([26]; 800 mg BID (N = 20)): 5.55
- Objective Response rate (ORR), % ([26]; 800 mg BID (N = 20)): (10) %
- Partial Response, % ([26]; 800 mg BID (N = 20)): (10) %
- Progressive disease, % ([26]; 800 mg BID (N = 20)): (25) %
- Stable disease, % ([26]; 800 mg BID (N = 20)): (55) %
- Clinical Benefit Rate, % (CBR = PR + CR + SD ≥24 weeks) ([26]; 1200 mg BID (N = 20)): (60) %
- Clinical Benefit Rate, n (CBR = PR + CR + SD ≥24 weeks) ([26]; 1200 mg BID (N = 20)): 12
- Disease Control rate (DCR), % ([26]; 1200 mg BID (N = 20)): (70) %
- Duration of Clinical Benefit, median ([26]; 1200 mg BID (N = 20)): 7.46
- Duration of Response (DOR) in ORR patients, median ([26]; 1200 mg BID (N = 20)): 9.36
- Duration of Treatment (DOT), median ([26]; 1200 mg BID (N = 20)): 5.63
- Objective Response rate (ORR), % ([26]; 1200 mg BID (N = 20)): (15) %
- Partial Response, % ([26]; 1200 mg BID (N = 20)): (15) %
- Progressive disease, % ([26]; 1200 mg BID (N = 20)): (20) %
- Stable disease, % ([26]; 1200 mg BID (N = 20)): (55) %
- Clinical Benefit Rate, % (CBR = PR + CR + SD ≥24 weeks) ([26]; All (N = 40)): (57.5) %
- Clinical Benefit Rate, n (CBR = PR + CR + SD ≥24 weeks) ([26]; All (N = 40)): 23
- Disease Control rate (DCR), % ([26]; All (N = 40)): (67.5) %
- Duration of Clinical Benefit, median ([26]; All (N = 40)): 7.46
- Duration of Response (DOR) in ORR patients, median ([26]; All (N = 40)): 9.36
- Duration of Treatment (DOT), median ([26]; All (N = 40)): 5.60
- Objective Response rate (ORR), % ([26]; All (N = 40)): (12.5) %
- Partial Response, % ([26]; All (N = 40)): (12.5) %
- Progressive disease, % ([26]; All (N = 40)): (22.5) %
- Stable disease, % ([26]; All (N = 40)): (55) %
- EC50 (PI3Kγ [27]): 37.8 nM
- EC50 (PI3Kδ [28]): 39 nM
- selectivity over the α and β isoforms (cell-based assay) (PI3Kδ [29]; PI3K δ/γ versus PI3K α and β): selective
- EC50 (PI3Kδ [29]; anti-IgM induced human B-cell proliferation): 38.1 nM

SMILES: CC[C@H](Nc1ncnc2[nH]c(O)nc12)c1oc2ccccc2c(=O)c1-c1cccc(F)c1 [Compound M, (S)-3-(3-fluorophenyl)-2-(1-((8-hydroxy-9H-purin-6-yl)amino)propyl)-4H-chromen-4-one]
- % Metabolic Stability [15]: 58.0%
- % Metabolic Stability [16]: 67.6%
- % Metabolic Stability [18]: 58.5%
- IC50 (SIK3): 237 nM
- selectivity over the SIK1 and SIK2 isoforms (SIK3): Selective over
- potentiation of the activity of taxol [30]: potentiated

SMILES: COc1cccc2c1C(=O)c1c(O)c3c(c(O)c1C2=O)C[C@@](O)(C(=O)CO)C[C@@H]3O[C@H]1C[C@H](N)[C@H](O)[C@H](C)O1 [Doxorubicin]
- inhibition at 0.05 µM [31]: 42.8%
